Laboratory results reported in ChEMBL document CHEMBL2010779, “Dibenzocyclooctadiene lignans from Kadsura polysperma and their antineurodegenerative activities” (2012).

Experiments:
Type in all cases: functional
Conditions in all cases: read-out: Activity
PC-12 [1] = experiment: Neuroprotective activity against amyloid beta(25-35)-induced cell death in rat PC12 cells assessed as cell viability at 1 uM incubated for 2 hrs prior to amyloid beta(25-35)-challenge measured after 24 hrs by MTT assay (reference value: 38.8 +/- 1%)
PC-12 [2] = experiment: Neuroprotective activity against H2O2-induced cell death in rat PC12 cells assessed as cell viability at 1 uM incubated for 2 hrs prior to H2O2-challenge measured after 24 hrs by MTT assay (reference value: 53.7 +/- 1.7%)
PC-12 [3] = experiment: Neuroprotective activity against amyloid beta(25-35)-induced cell death in rat PC12 cells assessed as cell viability at 10 uM incubated for 2 hrs prior to amyloid beta(25-35)-challenge measured after 24 hrs by MTT assay (reference value: 38.8 +/- 1%)
PC-12 [4] = experiment: Neuroprotective activity against H2O2-induced cell death in rat PC12 cells assessed as cell viability at 10 uM incubated for 2 hrs prior to H2O2-challenge measured after 24 hrs by MTT assay (reference value: 53.7 +/- 1.7%)
PC-12 [5] = experiment: Neuroprotective activity against amyloid beta(25-35)-induced cell death in rat PC12 cells assessed as cell viability at 10 uM incubated for 2 hrs prior to amyloid beta(25-35)-challenge measured after 24 hrs by MTT assay (reference value: 34.8 +/- 0.8%)
PC-12 [6] = experiment: Neuroprotective activity against amyloid beta(25-35)-induced cell death in rat PC12 cells assessed as cell viability at 1 uM incubated for 2 hrs prior to amyloid beta(25-35)-challenge measured after 24 hrs by MTT assay (reference value: 34.8 +/- 0.8%)
PC-12 [7] = experiment: Neuroprotective activity against H2O2-induced cell death in rat PC12 cells assessed as cell viability at 10 uM incubated for 2 hrs prior to H2O2-challenge measured after 24 hrs by MTT assay (reference value: 53.1 +/- 1.1%)
PC-12 [8] = experiment: Neuroprotective activity against H2O2-induced cell death in rat PC12 cells assessed as cell viability at 1 uM incubated for 2 hrs prior to H2O2-challenge measured after 24 hrs by MTT assay (reference value: 53.1 +/- 1.1%)

| Compound | viability at 1 µM (PC-12 [1]) [%] | viability at 1 µM (PC-12 [2]) [%] | viability at 10 µM (PC-12 [3]) [%] | viability at 10 µM (PC-12 [4]) [%] | viability at 10 µM (PC-12 [5]) [%] | viability at 1 µM (PC-12 [6]) [%] | viability at 10 µM (PC-12 [7]) [%] | viability at 1 µM (PC-12 [8]) [%] |
| --- | --- | --- | --- | --- | --- | --- | --- | --- |
| C/C=C(\C)C(=O)O[C@H]1c2cc(OC)c(OC)c(OC)c2-c2c(cc3c(c2OC)OCO3)[C@H](OC(=O)CC)[C@H](C)[C@H]1C | 43.1 | 54.6 | 39.3 | 60.7 |  |  |  |  |
| COc1cc2c(c(OC)c1OC)-c1c(cc3c(c1OC)OCO3)[C@H](O)[C@H](C)[C@H](C)C2 [ISOGOMISIN O] | 38 | 48.8 | 33.3 | 55.8 |  |  |  |  |
| COc1cc2c(c(OC)c1OC)-c1c(cc3c(c1OC)OCO3)[C@H](OC(=O)/C=C/c1ccccc1)[C@H](C)[C@H](C)C2 [KADSUPHILINS A] |  |  |  |  | 32.3 | 35.3 | 52.5 | 53 |
| COc1cc2c(c(OC)c1OC)-c1c(cc3c(c1OC)OCO3)[C@H](OC(C)=O)[C@H](C)[C@H](C)C2 [KADSURIN] |  |  |  |  | 32.9 | 35.1 | 44 | 57.2 |
| C/C=C(\C)C(=O)Oc1c(OC)c(OC)cc2c1-c1c(cc(OC)c(OC)c1OC)[C@H](O)[C@H](C)[C@H](C)C2 [METHYL SCHISANTHERIN F] | 41.4 | 50.4 | 41 | 53.4 |  |  |  |  |
| C/C=C(/C)C(=O)O[C@H]1c2cc3c(c(OC)c2-c2c(cc(OC)c(OC)c2OC)[C@H](OC(=O)/C(C)=C\C)[C@@H](C)[C@H]1C)OCO3 [POLYSPERLIGNAN A] | 39.9 | 55.8 | 46.4 | 58.2 |  |  |  |  |
| C/C=C(\C)C(=O)O[C@H]1c2cc3c(c(OC)c2-c2c(cc(OC)c(OC)c2OC)[C@H](OC(C)=O)[C@@H](C)[C@H]1C)OCO3 [POLYSPERLIGNAN B] |  |  |  |  | 34.1 | 36.4 | 58.9 | 55.9 |
| C/C=C(/C)C(=O)O[C@H]1c2cc3c(c(OC)c2-c2c(cc(OC)c(OC)c2OC)[C@H](OC(=O)/C=C/c2ccccc2)[C@@H](C)[C@H]1C)OCO3 [POLYSPERLIGNAN E] | 39 | 57.1 | 39.7 | 58.9 |  |  |  |  |
| COc1cc2c(c(OC)c1OC)-c1c(cc3c(c1OC)OCO3)[C@H](OC(=O)/C=C\c1ccccc1)[C@H](C)[C@H](C)C2 [POLYSPERLIGNAN F] | 38.4 | 55.2 | 36.4 | 58.5 |  |  |  |  |
| C/C=C(/C)C(=O)Oc1c(OC)c(OC)cc2c1-c1c(cc(OC)c(OC)c1OC)[C@H](O)[C@H](C)[C@H](C)[C@H]2OC(=O)/C(C)=C\C [POLYSPERLIGNAN I] | 39 | 53.3 | 41.2 | 53.7 |  |  |  |  |
| COc1cc2c(c(OC)c1OC)-c1c(cc3c(c1OC)OCO3)[C@H](O)[C@@H](C)[C@@H](C)C2 [YUNNANKADSURIN B] |  |  |  |  | 33.2 | 35.2 | 53.3 | 51 |
